Source: US11939334B2, “Substituted pyrimido[4,5-b][1,4]diazepines as PLK1 degradation inducers” (UPPTHERA, INC., priority 2021, dated 2024)

Experiments:
MRC-5 cell line = assay: Cell viability assay for MRC-5 cell line; details: for IC50: Homo sapiens, MRC5, 120 h, read-out: Activity: IC50 value (nM) to MRC-5 cell line
PLK1 = molecular target: T1, PLK1 (Homo sapiens, UniProt P53350); assay: Luciferase assay for PLK1 in HeLa LgBit (Plk1-HiBit KI) cell line; type: cell-based; details: 300 nM compound, luminescence after 9 hours
T1 construct: endogenous in cells; host or cells: HeLa cells stably expressing LgBit, with CRISPR/Cas9 knock-in of HiBit at the endogenous PLK1 locus
T1 sequence (P53350 whole entry): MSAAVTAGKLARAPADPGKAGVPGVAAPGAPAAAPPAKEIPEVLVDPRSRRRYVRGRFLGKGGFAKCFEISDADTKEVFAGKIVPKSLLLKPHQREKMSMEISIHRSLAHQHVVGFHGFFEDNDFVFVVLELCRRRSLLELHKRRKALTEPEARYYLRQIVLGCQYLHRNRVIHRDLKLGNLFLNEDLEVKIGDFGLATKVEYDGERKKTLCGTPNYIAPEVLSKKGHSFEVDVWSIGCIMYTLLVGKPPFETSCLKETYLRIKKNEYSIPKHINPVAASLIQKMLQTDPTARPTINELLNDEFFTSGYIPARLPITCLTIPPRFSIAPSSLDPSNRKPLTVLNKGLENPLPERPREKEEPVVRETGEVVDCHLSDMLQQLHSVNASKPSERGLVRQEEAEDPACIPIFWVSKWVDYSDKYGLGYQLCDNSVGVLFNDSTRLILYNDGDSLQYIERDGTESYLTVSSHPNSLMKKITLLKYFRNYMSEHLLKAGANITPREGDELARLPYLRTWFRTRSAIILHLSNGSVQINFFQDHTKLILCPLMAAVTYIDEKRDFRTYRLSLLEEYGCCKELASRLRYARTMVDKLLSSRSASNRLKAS
In short: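 HeLa LgBit cells with endogenous Plk1 C-terminally HiBiT-tagged by CRISPR knock-in were synchronized by 2 mM thymidine block for 24 h, then released and seeded. After 18 h, Endurazine was added and compounds were dosed at 300 nM. Luminescence was tracked in real time; activity is the ratio to DMSO.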

H526 cell line = assay: Cell viability assay for H526 cell line; type: cell-based; details: Homo sapiens, NCI-H526, 120 h; H526 cells, 5 days, EZ-Cytox, 0.46-3000 nM
Description: 3. Cell Viability Assay for H526 Cell Line
(1) Culture of NCI-H526 Cell Line
(2) Treatment of Compounds of the Present Invention and Method of Cell Viability Assay
After treating the compound to each well to make the total volume of 200 μL, it was cultured in a CO2 incubator (Thermo Fisher Science, Cat. No. 4111) for 5 days.
The absorbance of the completely cultured sample was measured by setting the wavelength of a plate reader (BMG Labtech, CLARIOstar Plus) to […], and was measured after shaking for 3 minutes in a plate reader before measurement.
In Table 3, Activity represents IC50 value of each Exemplary Compound treatment group to H526 cell line (A: <30 nM, B: <50 nM, C: <100 nM, D: <200 nM, E: <400 nM).

[1] = Cell viability assay for MRC-5 cell line; details: human

| SMILES | cytotoxicity in normal cell line (in words) (MRC-5 cell line; MRC-5 cell line) | Activity: ratio of the luminescence value of each Exemplary Compound treatment group to DMSO treatment group (PLK1) | IC50 (H526 cell line) [µM] | IC50 (MRC-5 cell line) [nM] | IC50 at 5 days [1] [µM] | IC50 at 5 days ([1]; MRC-5 cells (normal cell line)) [µM] |
| --- | --- | --- | --- | --- | --- | --- |
| CC[C@@H]1C(=O)N(C)c2cnc(Nc3ccc(C(=O)NCCOCCOCCNc4cccc5c4C(=O)N(C4CCC(=O)NC4=O)C5=O)cc3OC)nc2N1C1CCCC1 (stereo partly shown) [Comparative Compound 1, reference compound] | high level of cytotoxicity in normal cell line |  |  |  |  |  |
| COc1cc(C(=O)NC2CC(N(C)CCC3CCN(c4cccc(C5CCC(=O)NC5=O)c4)CC3)C2)ccc1Nc1ncc2c(n1)N(C(C)C)CC1(CC1)C(=O)N2C (stereo not shown) [Compound 6, N-(3-((2-(1-(3-(2,6-dioxopiperidin-3-yl)phenyl)piperidin-4-yl)ethyl)(methyl)amino)cyclobutyl)-4-((9′-isopropyl-5′-methyl-6′-oxo-5′,6′,8′,9′-tetrahydrospiro[cyclopropane-1,7′-pyrimido[4,5-b][1,4]diazepin]-2′-yl)amino)-3-methoxybenzamide] |  | ++ (++ <0.6) | < 0.4 | 12300 |  |  |
| COc1cc(C(=O)NC2CCC(N(C)CC3CCN(c4ccc(C5CCC(=O)NC5=O)cc4F)CC3)CC2)ccc1Nc1ncc2c(n1)N(C(C)C)CC(F)(F)C(=O)N2C (stereo not shown) [Compound 7, 4-((7,7-difluoro-9-isopropyl-5-methyl-6-oxo-6,7,8,9-tetrahydro-5H-pyrimido[4,5-b][1,4]diazepin-2-yl)amino)-N-((1r,4r)-4-(((1-(4-(2,6-dioxopiperidin-3-yl)-2-fluorophenyl)piperidin-4-yl)methyl)(methyl)amino)cyclohexyl)-3-methoxybenzamide] |  | +++ (+++: <0.3) | < 0.03 | 13000 |  |  |
| COc1cc(C(=O)N[C@H]2CC[C@H](N(C)CCN3CCN(c4ccc(C5CCC(=O)NC5=O)cc4F)CC3)CC2)ccc1Nc1ncc2c(n1)N(C(C)C)CC(F)(F)C(=O)N2C (stereo partly shown) [Compound 9, 4-((7,7-difluoro-9-isopropyl-5-methyl-6-oxo-6,7,8,9-tetrahydro-5H-pyrimido[4,5-b][1,4]diazepin-2-yl)amino)-N-((1r,4r)-4-((2-(4-(4-(2,6-dioxopiperidin-3-yl)-2-fluorophenyl)piperazin-1-yl)ethyl)(methyl)amino)cyclohexyl)-3-methoxybenzamide] |  | ++ (++ <0.6) | < 0.05 | 16600 |  |  |
| COc1cc(C(=O)N[C@H]2CC[C@H](N(C)CCN3CCN(c4c(F)cc(C5CCC(=O)NC5=O)cc4F)CC3)CC2)ccc1Nc1ncc2c(n1)N(C(C)C)CC(F)(F)C(=O)N2C (stereo partly shown) [Compound 10, 4-((7,7-difluoro-9-isopropyl-5-methyl-6-oxo-6,7,8,9-tetrahydro-5H-pyrimido[4,5-b][1,4]diazepin-2-yl)amino)-N-((1r,4r)-4-((2-(4-(4-(2,6-dioxopiperidin-3-yl)-2,6-difluorophenyl)piperazin-1-yl)ethyl)(methyl)amino)cyclohexyl)-3-methoxybenzamide] |  | ++ (++ <0.6) | < 0.05 | 15600 |  |  |
| COc1cc(C(=O)NC2CCN(CC3CN(c4ccc(C5CCC(=O)NC5=O)cc4F)C3)CC2)ccc1Nc1ncc2c(n1)N(C(C)C)CC(F)(F)C(=O)N2C (stereo not shown) [Compound 12, 4-((7,7-difluoro-9-isopropyl-5-methyl-6-oxo-6,7,8,9-tetrahydro-5H-pyrimido[4,5-b][1,4]diazepin-2-yl)amino)-N-(1-((1-(4-(2,6-dioxopiperidin-3-yl)-2-fluorophenyl)azetidin-3-yl)methyl)piperidin-4-yl)-3-methoxybenzamide] |  | ++ (++ <0.6) | < 0.05 | 24600 |  |  |
| COc1cc(C(=O)NC2CC3(CCN(CC4CCN(c5ccc(C6CCC(=O)NC6=O)cc5F)CC4)CC3)C2)c(F)cc1Nc1ncc2c(n1)N(C(C)C)CC(F)(F)C(=O)N2C (stereo not shown) [Compound 14, 4-((7,7-difluoro-9-isopropyl-5-methyl-6-oxo-6,7,8,9-tetrahydro-5H-pyrimido[4,5-b][1,4]diazepin-2-yl)amino)-N-(7-((1-(4-(2,6-dioxopiperidin-3-yl)-2-fluorophenyl)piperidin-4-yl)methyl)-7-azaspiro[3.5]nonan-2-yl)-2-fluoro-5-methoxybenzamide] |  | ++ (++ <0.6) | < 0.05 | 14700 |  |  |
| COc1cc(C(=O)NC2CC3(CCN(CC4CCN(c5ccc(C6CCC(=O)NC6=O)cc5OC)CC4)CC3)C2)ccc1Nc1ncc2c(n1)N(C(C)C)CC(F)(F)C(=O)N2C (stereo not shown) [Compound 36, 4-((7,7-difluoro-9-isopropyl-5-methyl-6-oxo-6,7,8,9-tetrahydro-5H-pyrimido[4,5-b][1,4]diazepin-2-yl)amino)-N-(7-((1-(4-(2,6-dioxopiperidin-3-yl)-2-methoxyphenyl)piperidin-4-yl)methyl)-7-azaspiro[3.5]nonan-2-yl)-3-methoxybenzamide] |  | ++ (++ <0.6) | < 0.03 |  | > 10 |  |
| COc1cc(C(=O)NN2CCN(C3CCN(c4ccc(C5CCC(=O)NC5=O)cc4F)C3)CC2)ccc1Nc1ncc2c(n1)N(C(C)C)CC(F)(F)C(=O)N2C (stereo not shown) [Compound 38, 4-((7,7-difluoro-9-isopropyl-5-methyl-6-oxo-6,7,8,9-tetrahydro-5H-pyrimido[4,5-b][1,4]diazepin-2-yl)amino)-N-(4-(1-(4-(2,6-dioxopiperidin-3-yl)-2-fluorophenyl)pyrrolidin-3-yl)piperazin-1-yl)-3-methoxybenzamide] |  | +++ (+++: <0.3) | < 0.05 |  |  | > 10 |
| COc1cc(C(=O)NN2CCC(CN3CCC4(CC3)CN(c3ccc(C5CCC(=O)NC5=O)cc3F)C4)CC2)ccc1Nc1ncc2c(n1)N(C(C)C)CC(F)(F)C(=O)N2C (stereo not shown) [Compound 42, 4-((7,7-difluoro-9-isopropyl-5-methyl-6-oxo-6,7,8,9-tetrahydro-5H-pyrimido[4,5-b][1,4]diazepin-2-yl)amino)-N-(4-((2-(4-(2,6-dioxopiperidin-3-yl)-2-fluorophenyl)-2,7-diazaspiro[3.5]nonan-7-yl)methyl)piperidin-1-yl)-3-methoxybenzamide] |  | ++ (++ <0.6) | < 0.03 |  |  | > 10 |
| COc1cc(C(=O)NC2CCC(CCN3CCN(c4ccc(C5CCC(=O)NC5=O)cc4F)CC3)CC2)ccc1Nc1ncc2c(n1)N(C(C)C)CC(F)(F)C(=O)N2C (stereo not shown) [Compound 43, 4-((7,7-difluoro-9-isopropyl-5-methyl-6-oxo-6,7,8,9-tetrahydro-5H-pyrimido[4,5-b][1,4]diazepin-2-yl)amino)-N-((1r,4r)-4-(2-(4-(4-(2,6-dioxopiperidin-3-yl)-2-fluorophenyl)piperazin-1-yl)ethyl)cyclohexyl)-3-methoxybenzamide] |  | +++ (+++: <0.3) | < 0.03 |  |  | > 10 |
| COc1cc(C(=O)NC2CC(N(C)CC3CCN(c4ccc(C5CCC(=O)NC5=O)cc4F)CC3)C2)ccc1Nc1ncc2c(n1)N(C(C)C)CC(F)(F)C(=O)N2C (stereo not shown) [Compound 44, 4-((7,7-difluoro-9-isopropyl-5-methyl-6-oxo-6,7,8,9-tetrahydro-5H-pyrimido[4,5-b][1,4]diazepin-2-yl)amino)-N-(3-(((1-(4-(2,6-dioxopiperidin-3-yl)-2-fluorophenyl)piperidin-4-yl)methyl)(methyl)amino)cyclobutyl)-3-methoxybenzamide] |  | +++ (+++: <0.3) | < 0.03 |  |  | > 10 |
| COc1cc(C(=O)NN2CCC(CCN3CCN(c4ccc(C5CCC(=O)NC5=O)cc4F)CC3)CC2)ccc1Nc1ncc2c(n1)N(C(C)C)CC(F)(F)C(=O)N2C (stereo not shown) [Compound 45, 4-((7,7-difluoro-9-isopropyl-5-methyl-6-oxo-6,7,8,9-tetrahydro-5H-pyrimido[4,5-b][1,4]diazepin-2-yl)amino)-N-(4-(2-(4-(4-(2,6-dioxopiperidin-3-yl)-2-fluorophenyl)piperazin-1-yl)ethyl)piperidin-1-yl)-3-methoxybenzamide] |  | +++ (+++: <0.3) | < 0.03 |  |  | > 10 |
| COc1cc(C(=O)NC2CC23CCN(CC2CCN(c4ccc(C5CCC(=O)NC5=O)cc4F)CC2)CC3)ccc1Nc1ncc2c(n1)N(C(C)C)CC(F)(F)C(=O)N2C (stereo not shown) [Compound 46, 4-((7,7-difluoro-9-isopropyl-5-methyl-6-oxo-6,7,8,9-tetrahydro-5H-pyrimido[4,5-b][1,4]diazepin-2-yl)amino)-N-(6-((1-(4-(2,6-dioxopiperidin-3-yl)-2-fluorophenyl)piperidin-4-yl)methyl)-6-azaspiro[2.5]octan-1-yl)-3-methoxybenzamide] |  | +++ (+++: <0.3) | < 0.1 |  | > 10 |  |
